Our source for the IC50 values is patent US8604024B2, “Compounds for the reduction of beta-amyloid production” (Bristol-Myers Squibb Company, priority 2011, dated 2013).

SMILES strings stand for the structures. Counter-ions that a name gives are not always drawn.

In one assay the test system is Aβ1-42 production in H4 cells stably transfected with APP751 containing the Swedish mutation. The experiment in a line: Cellular assay for inhibition of Aβ1-42 production (H4 APP751 SWE clone 8.20). Conditions: 19 h, H4 APP751 SWE clone 8.20 cells, 19 h incubation; read-out: Aβ42 cellular IC50. Format: cell-based. How it is done: Cellular Assays for Inhibition of Aβ1-40 and Aβ1-42 Production
H4 cells stably transfected with APP751 containing the Swedish mutation (H4 APP751 SWE clone 8.20, developed at BMS) were maintained in log phase through twice weekly passage at a 1:20 split. […] Following incubation for 19 h in 5% CO2 at 37° C., plates were briefly centrifuged (1000 rpm, 5 min). A 10 μl aliquot from each well was transferred to a second assay plate (Costar 3709) for Aβ40 measurements. Antibody cocktails were freshly prepared by dilution into 40 mM Tris-HCl (pH 7.4) with 0.2% BSA and added to assay plates. For Aβ42 measurements, antibodies specific for the Aβ42 neoepitope (565, developed at BMS; conjugated to the Wallac reagent (Perkin Elmer)) and the N-terminal sequence of Aβ peptide (26D6, developed at SIBIA; conjugated to APC (Perkin Elmer)) were mixed and 20 μl of the mixture was added to each well of the incubated cell plate yielding a final concentration of 0.8 ng/well 565 and 75 ng/well 26D6. For the Aβ40 measurements, antibodies specific for the Aβ40 neoepitope (TSD, developed at BMS; conjugated to the Wallac reagent (Perkin Elmer)) and 26D6 as described above were mixed and 20 μl of the mixture was added to the 10 μl aliquots which had been removed previously from the cell plate yielding a final concentration of 1.6 ng/well TSD and 17.5 ng/well 26D6. Assay plates containing antibodies were sealed with aluminum foil and incubated overnight at 4° C. Signal was determined using a Viewlux counter (Perkin Elmer) and IC50 values determined using curve fitting in CurveMaster (Excel Fit based).
Regarding `CC#Cc1cncc(-c2ccc3c(c2)[C@@]2(C)N=C(N)SC[C@H]2CCC3)c1` (relative stereo) [Example 15, rel-(4aS,11bS)-11b-Methyl-10-(5-(prop-1-yn-1-yl)pyridin-3-yl)-4,4a,5,6,7,11b-hexahydrobenzo[6,7]cyclohepta[1,2-d][1,3]thiazin-2-amine, bis(2,2,2-trifluoroacetate)], the IC50 came out at 3.6 µM.
On the same count and under the same terms, next, `C[C@@]12N=C(N)SC[C@@H]1CCCc1ccc(NC(=O)c3ccc(F)cn3)cc12` [Example 43a, N-((4aR,11bR)-2-Amino-11b-methyl-4,4a,5,6,7,11b-hexahydrobenzo[6,7]cyclohepta[1,2-d][1,3]thiazin-10-yl)-5-fluoropicolinamide]: 2.5 µM; `C[C@@]12N=C(N)SC[C@@H]1CCOc1ccc(NC(=O)c3ccc(Cl)cn3)cc12` [Example 33b, N-((4aR,11bR)-2-amino-11b-methyl-4a,5,6,11b-tetrahydro-4H-benzo[2,3]oxepino[4,5-d][1,3]thiazin-10-yl)-5-chloropicolinamide]: 7.8 µM; `C[C@]12N=C(N)SC[C@H]1CCOc1ccc(Nc3ncccc3C#N)cc12` (relative stereo) [Example 39, rel-2-(((4aS,11bS)-2-Amino-11b-methyl-4a,5,6,11b-tetrahydro-4H-benzo[2,3]oxepino[4,5-d][1,3]thiazin-10-yl)amino)nicotinonitrile, bis(2,2,2-trifluoroacetate)]: more than 30 µM.
On the same count and under the same terms, next, `C[C@]12N=C(N)SC[C@H]1CCOc1ccc(NC(=O)c3ccc(F)cn3)cc12` (relative stereo) [Example 36, rel-N-((4aS,11bS)-2-Amino-11b-methyl-4a,5,6,11b-tetrahydro-4H-benzo[2,3]oxepino[4,5-d][1,3]thiazin-10-yl)-5-fluoropicolinamide, 2,2,2-trifluoroacetate salt]: 0.085 µM.
`COc1cccc(-c2ccc3c(c2)[C@@]2(C)N=C(N)SC[C@H]2CCC3)c1` (relative stereo) [Example 12, rel-(4aS,11bS)-10-(3-methoxyphenyl)-11b-methyl-4,4a,5,6,7,11b-hexahydrobenzo[6,7]cyclohepta[1,2-d][1,3]thiazin-2-amine, 2,2,2-trifluoroacetate]: the IC50 is 3.4 µM.
Still for that read-out and setting: next, `C[C@]12N=C(N)SC[C@H]1CCCc1ccc(NC(=O)c3ccc(F)cn3)cc12` [Example 43b, N-((4aS,11bS)-2-Amino-11b-methyl-4,4a,5,6,7,11b-hexahydrobenzo[6,7]cyclohepta[1,2-d][1,3]thiazin-10-yl)-5-fluoropicolinamide]: 0.12 µM.
As to `NC1=N[C@@H]2c3cc(-c4cncnc4)ccc3CCC[C@@H]2CS1` [Example 1a, (4aS,11bS)-10-Pyrimidin-5-yl-4,4a,5,6,7,11b-hexahydro-3-thia-1-aza-dibenzo[a,c]cyclohepten-2-ylamine], the IC50 worked out at 1.9 µM.
As to `CC#Cc1cncc(-c2ccc3c(c2)[C@]2(C)N=C(N)SC[C@@H]2CCO3)c1` [Example 22a, (4aR,11bR)-11b-Methyl-10-(5-(prop-1-yn-1-yl)pyridin-3-yl)-4a,5,6,11b-tetrahydro-4H-benzo[2,3]oxepino[4,5-d][1,3]thiazin-2-amine], the 50% inhibitory concentration (IC50) is 8.2 µM.
Regarding `C[C@@]12N=C(N)SC[C@@H]1CCCc1ccc(NC(=O)c3ccc(OC(F)F)cn3)cc12` [Example 46b, N-((4aR,11bR)-2-Amino-11b-methyl-4,4a,5,6,7,11b-hexahydrobenzo[6,7]cyclohepta[1,2-d][1,3]thiazin-10-yl)-5-(difluoromethoxy)picolinamide], the IC50 stood at 3.5 µM.
In the case of `C[C@]12N=C(N)SC[C@H]1CCOc1ccc(-n3cccn3)cc12` (relative stereo) [Example 32, rel-(4aS,11bS)-11b-Methyl-10-(1H-pyrazol-1-yl)-4a,5,6,11b-tetrahydro-4H-benzo[2,3]oxepino[4,5-d][1,3]thiazin-2-amine, 2,2,2-trifluoroacetate], the IC50 was 11 µM.
On to `NC1=N[C@@H]2c3cc(-c4cncnc4)ccc3CCC[C@@H]2CS1` (relative stereo) [Example 1, rel-(4aS,11bS)-10-Pyrimidin-5-yl-4,4a,5,6,7,11b-hexahydro-3-thia-1-aza-dibenzo[a,c]cyclohepten-2-ylamine, bis(2,2,2-trifluoroacetate)], for which the IC50 was found to be 5.2 µM.
Still for that read-out and setting: next, `C[C@]12N=C(N)SC[C@H]1CCOc1ccc(-c3cnoc3)cc12` (relative stereo) [Example 25, rel-(4aS,11bS)-10-(Isoxazol-4-yl)-11b-methyl-4a,5,6,11b-tetrahydro-4H-benzo[2,3]oxepino[4,5-d][1,3]thiazin-2-amine, 2,2,2-trifluoroacetate salt]: 18 µM.
On to `C[C@]12N=C(N)SC[C@H]1CCc1ccc(NC(=O)c3ccc(Cl)cn3)cc12` (relative stereo) [Example 7, rel-N-((4aS,10bS)-2-Amino-10b-methyl-4a,5,6,10b-tetrahydro-4H-naphtho[1,2-d][1,3]thiazin-9-yl)-5-chloropicolinamide, 2,2,2-trifluoroacetate], for which the IC50 stood at 1.1 µM.
Regarding `C[C@]12N=C(N)SC[C@H]1CCOc1ccc(-c3cn[nH]c3)cc12` (relative stereo) [Example 24, rel-(4aS,11bS)-11b-methyl-10-(1H-pyrazol-4-yl)-4a,5,6,11b-tetrahydro-4H-benzo[2,3]oxepino[4,5-d][1,3]thiazin-2-amine, bis(2,2,2-trifluoroacetate)], the IC50 stood at 8.1 µM.
In the case of `C[C@]12N=C(N)SC[C@H]1CCOc1ccc(-c3cc4cc(C#N)ccc4[nH]3)cc12` (relative stereo) [Example 28, rel-2-((4aS,11bS)-2-amino-11b-methyl-4a,5,6,11b-tetrahydro-4H-benzo[2,3]oxepino[4,5-d][1,3]thiazin-10-yl)-1H-indole-5-carbonitrile, 2,2,2-trifluoroacetate salt], the IC50 turned out to be 9.7 µM.
For `Cn1cc(-c2ccc3c(c2)[C@@]2(C)N=C(N)SC[C@H]2CCO3)cn1` (relative stereo) [Example 23, rel-(4aS,11bS)-11b-Methyl-10-(1-methyl-1H-pyrazol-4-yl)-4a,5,6,11b-tetrahydro-4H-benzo[2,3]oxepino[4,5-d][1,3]thiazin-2-amine, bis(2,2,2-trifluoroacetate)], the IC50 worked out at 5.1 µM.
With `Cc1cc(-c2ccc3c(c2)[C@@]2(C)N=C(N)SC[C@H]2CC3)n(C)n1` (relative stereo) [Example 20, rel-(4aS,10bS)-9-(1,3-Dimethyl-1H-pyrazol-5-yl)-10b-methyl-4a,5,6,10b-tetrahydro-4H-naphtho[1,2-d][1,3]thiazin-2-amine, bis(2,2,2-trifluoroacetate)], the IC50 is more than 30 µM.
In the case of `C[C@]12N=C(N)SC[C@H]1CCOc1ccc(NC(=O)c3ncc(Cl)cc3Cl)cc12` [Example 34a, N-((4aS,11bS)-2-Amino-11b-methyl-4a,5,6,11b-tetrahydro-4H-benzo[2,3]oxepino[4,5-d][1,3]thiazin-10-yl)-3,5-dichloropicolinamide], the IC50 stood at 0.0069 µM.
For the compound `C[C@]12N=C(N)SC[C@H]1CCCc1ccc(NC(=O)c3ccc(Cl)cn3)cc12` (relative stereo) [Example 3, 5-Chloro-pyridine-2-carboxylic acid (rel-(4aS,11bS)-2-amino-11b-methyl-4,4a,5,6,7,11b-hexahydro-3-thia-1-aza-dibenzo[a,c]cyclohepten-10-yl)-amide, 2,2,2-trifluoroacetate], the IC50 was 0.034 µM.
Turning to `C[C@]12N=C(N)SC[C@H]1CCOc1ccc(NC(=O)c3ncc(Cl)cc3Cl)cc12` (relative stereo) [Example 34, rel-N-((4aS,11bS)-2-Amino-11b-methyl-4a,5,6,11b-tetrahydro-4H-benzo[2,3]oxepino[4,5-d][1,3]thiazin-10-yl)-3,5-dichloropicolinamide, 2,2,2-trifluoroacetate salt], the IC50 was determined as 0.026 µM.
`C[C@]12N=C(N)SC[C@H]1CCOc1ccc(Nc3ncccc3Cl)cc12` (relative stereo) [Example 37, rel-(4aS,11bS)—N10-(3-Chloropyridin-2-yl)-11b-methyl-4a,5,6,11b-tetrahydro-4H-benzo[2,3]oxepino[4,5-d][1,3]thiazine-2,10-diamine, bis(2,2,2-trifluoroacetate)]: the IC50 is 1.4 µM.
Turning to `C[C@]12N=C(N)SC[C@H]1CCOc1ccc(NC(=O)c3ccc(Cl)cn3)cc12` [Example 33a, N-((4aS,11bS)-2-amino-11b-methyl-4a,5,6,11b-tetrahydro-4H-benzo[2,3]oxepino[4,5-d][1,3]thiazin-10-yl)-5-chloropicolinamide], the IC50 amounted to 0.035 µM.

Staying with this assay, now noted: H4 APP751 SWE clone 8.20 cells, 19 h incubation; read-out: Aβ42 cellular IC50.
On to `C[C@@]12N=C(N)SC[C@@H]1CCOc1ccc(NC(=O)c3ccc(C#N)cn3)cc12` (stereo in doubt) [Example 35a, N-((4aR,11bR)-2-amino-11b-methyl-4a,5,6,11b-tetrahydro-4H-benzo[2,3]oxepino[4,5-d][1,3]thiazin-10-yl)-5-cyanopicolinamide], for which the IC50 came out at 5.1 µM.
